Patent US11555821B2, “CA IX-NIR dyes and their uses” (On Target Laboratories, Inc., priority 2016, dated 2023)

Legend:
[1] = test system: SKRC52 human renal tumor xenograft; experiment: Whole body fluorescence imaging of SKRC52 human renal tumor xenograft bearing mouse (IVIS imager); type: in vivo; details: 10 nmol, within 2-24 hours after administering to the animal
Protocol: SKRC52 human renal tumor xenograft bearing mouse was injected with 10 nmol of 54 and imaged with IVIS imager (ex=745 nm, em=ICG, exposure time=1 s) at different time intervals.
SKRC52 human renal tumor xenograft bearing mouse was injected with 10 nmol of 55 and imaged with IVIS imager (ex=745 nm, em=ICG, exposure time=1 s) at different time intervals.
SKRC52 human renal tumor xenograft bearing mouse was injected with 10 nmol of 60 and imaged with IVIS imager (ex=745 nm, em=ICG, exposure time=[…]) at different time intervals.
SKRC52 human renal tumor xenograft bearing mouse was injected with 10 nmol of 61 and imaged with IVIS imager (ex=745 nm, em=ICG, exposure time=[…]) at different time intervals.
SKRC52 human renal tumor xenograft bearing mouse was injected with 10 nmol of 62 and imaged with IVIS imager (ex=745 nm, em=ICG, exposure time=1 s) at different time intervals.
SKRC52 human renal tumor xenograft bearing mouse was injected with 10 nmol of 65 and imaged with IVIS imager (ex=745 nm, em=ICG, exposure time=1 s) at different time intervals.
SKRC52 human renal tumor xenograft bearing mouse was injected with 10 nmol of 69 and imaged with IVIS imager (ex=745 nm, em=ICG, exposure time=1 s) at different time intervals.
SKRC52 human renal tumor xenograft bearing mouse was injected with 10 nmol of 70 and imaged with IVIS imager (ex=745 nm, em=ICG, exposure time=1 s) at different time intervals.
SKRC52 human renal tumor xenograft bearing mouse was injected with 10 nmol 72 and imaged with IVIS imager (ex=745 nm, em=ICG, exposure time=1 s) at different time intervals
SKRC52 human renal tumor xenograft bearing mouse was injected with 10 nmol of 76 and imaged with IVIS imager (ex=745 nm, em=ICG, exposure time=1 s) at different time intervals
SKRC52 human renal tumor xenograft bearing mouse was injected with 10 nmol of 77 and imaged with IVIS imager (ex=745 nm, em=ICG, exposure time=1 s) at different time intervals
SKRC52 human renal tumor xenograft bearing mouse was injected with 10 nmol of 80 and imaged with IVIS imager (ex=745 nm, em=ICG, exposure time=1 s) at different time intervals
SKRC52 human renal tumor xenograft bearing mouse was injected with 10 nmol of 81 and imaged with IVIS imager (ex=745 nm, em=ICG, exposure time=1 s) at different time intervals
SKRC52 human renal tumor xenograft bearing mouse was injected with 10 nmol of 85 and imaged with IVIS imager (ex=745 nm, em=ICG, exposure time=1 s) at different time intervals
SKRC52 human renal tumor xenograft bearing mouse was injected with 10 nmol of 86 and imaged with IVIS imager (ex=745 nm, em=ICG, exposure time=1 s) at different time intervals
SKRC52 human renal tumor xenograft bearing mouse was injected with 10 nmol of 87 and imaged with IVIS imager (ex=745 nm, em=ICG, exposure time=1 s) at different time intervals
SKRC52 human renal tumor xenograft bearing mouse was injected with 10 nmol of 88 and imaged with IVIS imager (ex=745 nm, em=ICG, exposure time=1 s) at different time intervals
SKRC52 human renal tumor xenograft bearing mouse was injected with 10 nmol of 89 and imaged with IVIS imager (ex=745 nm, em=ICG, exposure time=1 s) at different time intervals
SKRC52 human renal tumor xenograft bearing mouse was injected with 10 nmol of 90 and imaged with IVIS imager (ex=745 nm, em=ICG, exposure time=1 s) at different time intervals
SKRC52 human renal tumor xenograft bearing mouse was injected with 10 nmol of 93 and imaged with IVIS imager (ex=745 nm, em=ICG, exposure time=1 s) at different time intervals
SKRC52 human renal tumor xenograft bearing mouse was injected with 10 nmol of 95 and imaged with IVIS imager (ex=745 nm, em=ICG, exposure time=1 s) at different time intervals
SKRC52 human renal tumor xenograft bearing mouse was injected with 10 nmol of 99 and imaged with IVIS imager (ex=745 nm, em=ICG, exposure time=1 s) at different time intervals […]

[2] = test system: HCC827 (a human lung cancer cell line) tumor xenograft; experiment: Whole body fluorescence imaging of HCC827 tumor xenograft bearing mouse (IVIS imager); type: in vivo; details: 10 nmol
Protocol: HCC827 (a human lung cancer cell line) tumor xenograft bearing mouse was injected with 10 nmol of 61 and imaged with IVIS imager (ex=745 nm, em=ICG, exposure time=1 s) at different time intervals.
(§1) HT29 (a human colon cancer cell line) and HCC827 (a human lung cancer cell line) tumor xenograft bearing mouse was injected with 10 nmol of 61 and imaged with IVIS imager (ex=745 nm, em=ICG, exposure time=1 s) at different time intervals.

[3] = test system: HT29 (a human colon cancer cell line) tumor xenograft; experiment: Whole body fluorescence imaging of HT29 tumor xenograft bearing mouse (IVIS imager); type: in vivo; details: 10 nmol
Protocol: HT29 (a human colon cancer cell line) tumor xenograft bearing mouse was injected with 10 nmol of 61 and imaged with IVIS imager (ex=745 nm, em=ICG, exposure time=1 s) at different time intervals.
as §1

SKRC52 xenografts = experiment: Fluorescence imaging of tumor accumulation of OTL410 in nude mice bearing SKRC52 xenografts (AMI imager); type: in vivo, mouse
Protocol: FIG. 49 illustrates the time course of tumor accumulation by OTL410 by fluorescence imaging of nude mice bearing SKRC52 xenografts. After intravenous administration of 1 nmol of the conjugate in 100 μl of 5% aqueous dextrose, mice were anesthetized by isoflurane right before collecting each image. Tumor accumulation is evident as early as 15 min after injection of the conjugate, reaching peak intensity by 4 h.
Mice were euthanized by CO2 inhalation 3 h after intravenous administration of indicated concentrations of the conjugate, and epifluorescence images were collected ex vivo (Ex=745 nm, Em=810 nm FOV=25, binning 2, lamp power=55%). Five mice/per group were used for doses 0.25 nmol to 20 nmol, and image of 1 mouse representing each dose is presented.
Tumor Implantation and imaging: For establishing subcutaneous tumors from SKRC52, HT29 and 22RV1 cells, female nude mice were inoculated subcutaneously with 5×10^6 cells in 150 μl of 50% matrigel on the flank. KB tumors were established by inoculating female nude mice subcutaneously with 1×10^6 KB cells in 100 μl of folate deficient RPMI 1640 media. MDA MB-231 tumors were established by inoculating female nude mice subcutaneously with 2×10^6 cells in 100 μl of RPMI 1640 media. Tumor sizes were measured using a digital calipers and tumor volumes were calculated using the formula (L/2)×W2 where L and W represent the length and width of the tumor. When the tumors reached desired size (500-700 mm3), mice were randomly assigned to groups of 4-5. Each mouse was injected with varying concentrations of OTL410 in 100 μl of 5% aqueous dextrose. For the time course study, mice were imaged under anesthesia at varying time points starting at 15 minutes and up to 24 h using a Spectral AMI imaging system (Spectral Instruments Imaging) using the imaging parameters t=1 sec, f stop=2, FOV=25, binning=2, and lamp power=55%. For the biodistribution studies, mice were euthanized at 3 h, 12 h or 24 h after injection of OTL410, and fluorescence images were collected ex vivo using the same instrument and imaging parameters described above. For quantification of tumor to background ratios, region of interest (ROI) was drawn for tumor and each tissue of interest and the total and mean fluorescence intensity were calculated using the proprietary software from Spectral Instruments. TBR for each organ and respective standard deviations were calculated using Excel software.

[4] = test system: MDA-MB-231, a triple negative breast cancer cell line; experiment: OTL410 accumulation in MDA-MB-231 tumor xenografts (AMI imager); type: in vivo; details: MDA-MB-231, 2 nmol/mouse, 4 h
Protocol: (§2) FIGS. 54A and 54B illustrate KB, a derivative of HeLa cervical cancer cell line. FIGS. 54C and 54D illustrate MDA-MB-231, a triple negative breast cancer cell line. FIGS. 54E and 54F illustrate FaDu, a head & neck cancer cell line; and FIGS. 54G and 54H illustrate HT29, a colorectal cancer cell line. OTL410 was administered at a dose of 2 nmol/mouse in 100 μl of 5% aqueous dextrose, and the images were collected 4 h later using an AMI imager with the mice under anesthesia.
(§3) Tumor Implantation and imaging: For establishing subcutaneous tumors from SKRC52, HT29 and 22RV1 cells, female nude mice were inoculated subcutaneously with 5×10^6 cells in 150 μl of 50% matrigel on the flank. […] Tumor sizes were measured using a digital calipers and tumor volumes were calculated using the formula (L/2)×W2 where L and W represent the length and width of the tumor. […] For the biodistribution studies, mice were euthanized at 3 h, 12 h or 24 h after injection of OTL410, and fluorescence images were collected ex vivo using the same instrument and imaging parameters described above. For quantification of tumor to background ratios, region of interest (ROI) was drawn for tumor and each tissue of interest and the total and mean fluorescence intensity were calculated using the proprietary software from Spectral Instruments. TBR for each organ and respective standard deviations were calculated using Excel software.

[5] = test system: FaDu, a head & neck cancer cell line; experiment: OTL410 accumulation in FaDu tumor xenografts (AMI imager); type: in vivo; details: 2 nmol/mouse, 4 h
Protocol: as §2

[6] = test system: CAIX expressing SKRC52 tumor; experiment: OTL410 fluorescence-guided resection of CAIX expressing SKRC52 tumor from nude mice; type: in vivo; details: 1 nmol/mouse, euthanized 24 h later
Protocol: OTL410 was administered at a dose of 1 nmol/mouse in 100 μl of 5% aqueous dextrose, and the mouse was euthanized 24 h later. FIG. 53A illustrates the image acquired after ex vivo whole-body fluorescence imaging and skin around the tumor was removed. FIG. 53B illustrates, guided by the fluorescence image, the image acquired after the tumor was resected.
as §3

SKRC52 cells = experiment: Uptake of OTL410 by SKRC cells in vitro by fluorescence microscopy; type: cell-based, human; details: 100 nmols, 2 h
Protocol: SKRC52 cells were incubated with 100 nmols of OTL410 for 2 h, and fluorescence images were acquired after removing unbound conjugate, and washing cells 2× with media.
For competition studies, 50,000 SKRC cells were grown on 8 well glass bottom slides for 48 h. Spent media was removed, and the cells were incubated with 100 nmols of OTL410 in 500 μl of fresh media alone or in presence of 200× non-fluorescent ligand (i.e. OTL410 without the dye) in a cell culture incubator for 2 h. Cells were then washed 2× with 500 μl of media, and after the second step of washing, 500 μl of serum free media was added to the cells. These cells were then imaged using a Nikon wide-field microscope.

[7] = test system: HT29, a colorectal cancer cell line; experiment: OTL410 accumulation in HT29 tumor xenografts (AMI imager); type: in vivo; details: HT29, 2 nmol/mouse, 4 h
Protocol: as §2, §3

[8] = test system: KB, a derivative of HeLa cervical cancer cell line; experiment: OTL410 accumulation in KB tumor xenografts (AMI imager); type: in vivo; details: 2 nmol/mouse, 4 h
Protocol: as §2, §3

[9] = 1 nmol intravenous in 5% aqueous dextrose

Structure (SMILES)	whole-body imaging data [1]	accumulation in CA IX-negative tumor xenografts of lung cancer versus other healthy tissues [2]	accumulation in CA IX-negative tumor xenografts of colon cancer versus other healthy tissues [3]	dose dependence of accumulation in SKRC52 tumor xenografts (SKRC52 xenografts; 0.25 nmol to 20 nmol intravenous, 3 h, ex vivo images)	time after injection at which tumor accumulation is evident (SKRC52 xenografts; [9]) [min]	time of peak tumor fluorescence intensity (SKRC52 xenografts; [9]) [h]	tumor fluorescence intensity at 8 h (SKRC52 xenografts; 1 nmol intravenous, 8 h)	tumor fluorescence intensity maintained after 24 h (SKRC52 xenografts; 1 nmol intravenous, 24 h)	accumulation in tumor xenografts [4]	accumulation in tumor xenografts [5]	fluorescence-guided tumor resection [6]	uptake by SKRC cells in vitro (SKRC52 cells)	accumulation in tumor xenografts [7]	accumulation in tumor xenografts [8]
CC1(C)C(/C=C/C2=C(Oc3ccc(C[C@H](NC(=O)CCOCCOCCNC(=O)CCS(=O)(=O)c4c(F)c(F)c(S(N)(=O)=O)c(F)c4NC4CCCCCCC4)C(=O)O)cc3)C(=C/C=C3/N(CCCCS(=O)(=O)O)c4ccc(S(=O)(=O)O)cc4C3(C)C)/CCC2)=[N+](CCCCS(=O)(=O)[O-])c2ccc(S(=O)(=O)O)cc21 [Compound 61, 4-(2-((E)-2-((E)-2-(4-((S)-2-carboxy-16-((2-(cyclooctylamino)-3,5,6-trifluoro-4-sulfamoylphenyl)sulfonyl)-4,14-dioxo-7,10-dioxa-3,13-diazahexadecyl)phenoxy)-3-(2-((E)-3,3-dimethyl-5-sulfo-1-(4-sulfobutyl)indolin-2-ylidene)ethylidene)cyclohex-1-en-1-yl)vinyl)-3,3-dimethyl-5-sulfo-3H-indol-1-ium-1-yl)butane-1-sulfonate]	very good	selectively accumulated	selectively accumulated											
CC1(C)C(/C=C/C2=C(Oc3ccc(C[C@H](NC(=O)CCOCCOCCNC(=O)CCCS(=O)(=O)c4c(F)c(F)c(S(N)(=O)=O)c(F)c4NC4CCCCCCC4)C(=O)O)cc3)C(=C/C=C3/N(CCCCS(=O)(=O)O)c4ccc(S(=O)(=O)O)cc4C3(C)C)/CCC2)=[N+](CCCCS(=O)(=O)[O-])c2ccc(S(=O)(=O)O)cc21 [OTL410]				dose dependent accumulation	≤ 15	≤ 4	No loss in fluorescence intensity	~80 % of peak intensity	tumor-specific accumulation	tumor-specific accumulation	complete removal of the tumor with no fluorescent cells left behind	uptake	tumor-specific accumulation	tumor-specific accumulation
